Activity calls are given as the source filed them. The calls are words filed in the database; no cut-off is given here.
Key:
A2058 [1] = assay: Growth inhibition of human A2058 cells at 10 uM after 72 hrs by MTT assay; assay type: functional
A2058 [2] = assay: Antiproliferative activity against human A2058 cells assessed as inhibition of cell growth after 72 hrs by MTT assay; assay type: functional, cell-based; conditions: A2058, 72 h

## c1ccc2oc(-n3ccnc3)nc2c1
A2058 [1]; A2058, 72 h, read-out: GI
  inhibition of growth at 10 µM: 84.3%
A2058 [2]
  IC50: 7.1 µM

## c1ccc2sc(-n3cnc4ccccc43)nc2c1
A2058 [1]
  growth inhibition (GI): Active

## c1ccc2oc(-n3cnc4ccccc43)cc2c1
A2058 [1]
  growth inhibition (GI): Active

## c1ccc2oc(-n3cnc4ccccc43)nc2c1
A2058 [1]
  growth inhibition (GI): Active

## c1ccc2sc(-n3cnc4ccccc43)cc2c1
A2058 [1]
  growth inhibition (GI): Active

— ChEMBL document CHEMBL3286107, “Synthesis of C,N'-linked bis-heterocycles using a deprotometalation-iodination-N-arylation sequence and evaluation of their antiproliferative activity in melanoma cells” (Bioorg Med Chem, 2014)
